The text below walks through data of patent US4826854A, “Certain cycloalka-(b)-pyrazolo(3,4-d)-pyridin-3-one derivatives” (Ciba-Geigy Corporation, priority 1987, dated 1989).

For one experiment, the system named is benzodiazepine receptor. Description: benzodiazepine receptor binding and agonist/antagonist profile (3H-flunitrazepam displacement, rat brain membranes). The protocol: The benzodiazepine receptor binding properties indicative of the nervous system regulatory activity of said new compounds are determined in the receptor binding assay in vitro, e.g. similarly to that in Nature 266, 732 (1977) or Proc. Nat. Acad. Sci. USA 74, 3805 (1977). When tritiated flunitrazepam is used, the interaction of other drugs with said receptor can be readily assessed thus: Synaptosnal membranes from rat fore-brain are incubated at 0°-5° for 30 minutes with 0.5 nM tritiated flunitrazepam and various concentrations of the test substance in a buffer medium maintained at pH 7.5. […] The membranes, containing the receptors with various amounts of tritiated flunitrazepam, are filtered onto glass fiber filters, which are then analyzed in a liquid scintillation counter. […]
The pharmacological agonist and/or antagonist/inverse agonist profile of the benzodiazepine receptor modulators of the invention can also be determined by measuring their effect in a rat brain membrane preparation on the displacement of ^3 H-flunitrazepam in the presence or absence of gamma-aminobutric acid (GABA), on the enhancement of ^3 H-muscimol binding by etazolate, or on the binding of ^35 S-butyl bicyclophosphorothionate (TBPS), e.g. as described in J. Pharmacol. Exp. Ther. 231, 572 (1984).

In another experiment the test system is rat. In words: discrimination test in the rat. The experiment is classed as in vivo. The settings on record: test compounds administered orally. The text has this: Illustrative thereof is the compound of example 1.
The diazepam discrimination test, can also be used to determine benzodiazepine antagonist properties.

The subject of a further experiment is male Wistar rats. In words: Cook-Davidson conflict procedure (anxiolytic effects). The experiment is classed as in vivo, rat. The settings on record: e.g. as determined in the Cook-Davidson model. The text has this: Anxiolytic effects are observed, for example, by measuring the antagonism of pentylenetetrazol discriminative stimuli in the rat and according to the Cook-Davidson conflict procedure, using male Wistar rats, e.g. as described in Drug Development Research 6: 313-325 (1985).

Turning to `O=c1c2c[nH]c3c(c-2nn1-c1ccc(Cl)cc1)CCCCCC3` [Example 2b, 2-(4-chlorophenyl)-2,3,6,7,8,9,10,11-octahydrocycloocta[b]pyrazolo[3,4-d]-pyridin-3(5H)-one], in the experiment on benzodiazepine receptor, the “pharmacological profile at the benzodiazepine receptor” value is given as “benzodiazepine agonist profile”.
Consider `COc1ccc(-n2nc3c4c([nH]cc-3c2=O)CCCCCC4)cc1` [Example 1, 2-(4-methoxyphenyl)-2,3,6,7,8,9,10,11-octahydrocycloocta[b]pyrazolo[3,4-d]pyridin-3(5H)-one], for which, in the experiment on rat, the “generalization to the discrimination test” value is “do not generalize to the discrimination test”. Moreover, the “pharmacological profile at the benzodiazepine receptor” value in the experiment on benzodiazepine receptor is reported as “benzodiazepine agonist profile”. Moreover, in the experiment on male Wistar rats, the anxiolytic properties result is recorded as “demonstrate anxiolytic properties”.
